Assay results taken from DBAASP.
≈ marks a conversion by molar mass, not a printed value. One block for each molecule: values may come before it.

Tests used:
Assay in all cases: ≥ marks a high value that may be exact or a test limit, other limits are often not marked, values filed in µg/mL are converted to µM
[1] = tested on: Candida albicans ATCC 10231
[2] = tested on: Staphylococcus aureus ATCC 29213
[3] = tested on: Pseudomonas aeruginosa ATCC 27853
Bacillus subtilis = tested on: Bacillus subtilis
[4] = tested on: Candida albicans ATCC 2002
[5] = tested on: Escherichia coli ATCC 25922
[6] = tested on: Staphylococcus aureus ATCC 25923
Escherichia coli = tested on: Escherichia coli
Bacillus cereus = tested on: Bacillus cereus
Staphylococcus aureus = tested on: Staphylococcus aureus
Acinetobacter baumannii = tested on: Acinetobacter baumannii
[7] = tested on: Klebsiella pneumoniae ATCC 13883
Klebsiella pneumoniae = tested on: Klebsiella pneumoniae
Pseudomonas aeruginosa = tested on: Pseudomonas aeruginosa
[8] = tested on: Acinetobacter baumannii ATCC 19606
[9] = tested on: Staphylococcus aureus ATCC 43300
[10] = tested on: Enterococcus faecalis ATCC 29212
[11] = tested on: Salmonella enterica subsp. enterica serovar Typhimurium ATCC 14028

SMILES: CC[C@H](C)[C@H](NC(=O)[C@H](C)NC(=O)[C@H](CCCN=C(N)N)NC(=O)[C@H](Cc1ccc(O)cc1)NC(=O)[C@H](CC(C)C)NC(=O)[C@H](CC(N)=O)NC(=O)[C@H](Cc1ccc(O)cc1)NC(=O)CNC(=O)[C@H](C)NC(=O)[C@@H](NC(=O)[C@@H](NC(=O)[C@@H](NC(=O)[C@H](CCCN=C(N)N)NC(=O)[C@@H](NC(=O)[C@@H](NC(=O)[C@@H](NC(=O)[C@@H]1CCCN1C(=O)[C@H](Cc1c[nH]c2ccccc12)NC(=O)[C@@H](N)Cc1ccccc1)C(C)C)C(C)C)[C@@H](C)CC)[C@@H](C)O)C(C)C)C(C)C)C(=O)N[C@@H](CCCCN)C(=O)N[C@@H](CCCCN)C(=O)N[C@@H](CCCCN)C(=O)O [FWPVVIRTVVAGYNLYRAIKKK]
- MIC (Bacillus subtilis): 1.34 µM (≈ 3.52 µg/mL)
- MIC [4]: 0.335 µM (≈ 0.879 µg/mL)
- MIC [5]: 10.7 µM (≈ 28.1 µg/mL)
- MIC [6]: 0.447 µM (≈ 1.17 µg/mL)

SMILES: CC(C)C[C@H](NC(=O)CNC(=O)[C@H](Cc1ccccc1)NC(=O)[C@H](CC(C)C)NC(=O)[C@H](C)NC(=O)CN)C(=O)N[C@@H](C)C(=O)N[C@@H](CO)C(=O)N[C@@H](CCCCN)C(=O)N[C@H](C(=O)N[C@@H](Cc1ccccc1)C(=O)N1CCC[C@H]1C(=O)N[C@@H](C)C(=O)N[C@H](C(=O)N[C@@H](Cc1ccccc1)C(=O)NCC(=O)N[C@@H](C)C(=O)N[C@@H](Cc1ccccc1)C(=O)N[C@@H](CCCCN)C(=O)N[C@@H](CCCCN)C(=O)O)C(C)C)C(C)C [GALFGLASKVFPAVFGAFKK]
- MIC (Escherichia coli): 125 µM (≈ 256 µg/mL)
- MIC (Bacillus cereus): ≥ 125 µM

SMILES: CC[C@H](C)[C@H](NC(=O)[C@H](CC(C)C)NC(=O)CNC(=O)[C@@H](NC(=O)[C@@H](NC(=O)[C@H](C)NC(=O)[C@@H]1CCCN1C(=O)[C@@H](NC(=O)[C@@H](NC(=O)[C@H](CCCCN)NC(=O)[C@H](CO)NC(=O)[C@H](C)NC(=O)[C@H](CC(C)C)NC(=O)[C@H](CO)NC(=O)[C@H](Cc1ccccc1)NC(=O)[C@H](CC(C)C)NC(=O)[C@H](C)NC(=O)CN)C(C)C)C(C)C)C(C)C)[C@@H](C)CC)C(=O)N[C@@H](CCCCN)C(=O)N[C@@H](CCCCN)C(=O)O [GALFSLASKVVPAVIGLIKK]
- MIC (Escherichia coli): > 127 µM
- MIC (Bacillus cereus): ≥ 127 µM

SMILES: CC[C@H](C)[C@H](NC(=O)[C@@H](NC(=O)[C@H](CS)NC(=O)[C@H](Cc1ccc(O)cc1)NC(=O)[C@@H](NC(=O)[C@H](C)NC(=O)[C@@H]1CCCN1C(=O)[C@H](Cc1ccccc1)NC(=O)[C@@H](NC(=O)[C@H](CCCCN)NC(=O)[C@H](CO)NC(=O)[C@H](C)NC(=O)[C@H](CC(C)C)NC(=O)[C@H](CCCCN)NC(=O)CNC(=O)[C@H](CC(C)C)NC(=O)[C@H](C)N)C(C)C)C(C)C)[C@@H](C)O)C(=O)N[C@@H](CO)C(=O)N[C@@H](CCCN=C(N)N)C(=O)N[C@@H](CCCCN)C(=O)O [ALGKLASKVFPAVYCTISRK]
- MIC (Escherichia coli): 59.5 µM (≈ 128 µg/mL)
- MIC (Bacillus cereus): ≥ 119 µM

SMILES: CC(C)C[C@H](NC(=O)[C@H](CCCCN)NC(=O)[C@H](Cc1ccccc1)NC(=O)[C@@H](NC(=O)[C@@H](NC(=O)CNC(=O)[C@H](CC(C)C)NC(=O)[C@@H](N)Cc1ccccc1)C(C)C)C(C)C)C(=O)N[C@H](C(=O)N[C@@H](CO)C(=O)N[C@@H](CCCCN)C(=O)N[C@H](C(=O)N[C@@H](Cc1ccccc1)C(=O)N1CCC[C@H]1C(=O)N[C@@H](C)C(=O)N[C@H](C(=O)N[C@@H](Cc1ccccc1)C(=O)NCC(=O)N[C@@H](CCCCN)C(=O)N[C@H](C(=O)O)C(C)C)C(C)C)C(C)C)C(C)C [FLGVVFKLVSKVFPAVFGKV]
- MIC (Escherichia coli): 117 µM (≈ 256 µg/mL)
- MIC (Staphylococcus aureus): 3.67 µM (≈ 8 µg/mL)
- MIC (Bacillus cereus): 7.33 µM (≈ 16 µg/mL)

Second part, the molecule after the results:

- MIC [1]: 40 µM (≈ 83.6 µg/mL)
- MIC [2]: 5.93 µM (≈ 12.4 µg/mL)
- MIC [3]: 5.86 µM (≈ 12.2 µg/mL)
SMILES: CC(C)C[C@H](NC(=O)[C@H](CCCCN)NC(=O)[C@@H]1CCCN1C(=O)[C@H](CC(C)C)NC(=O)[C@H](CC(C)C)NC(=O)CNC(=O)[C@H](CCCCN)NC(=O)[C@H](CC(C)C)NC(=O)[C@H](CCCCN)NC(=O)[C@@H]1CCCN1C(=O)[C@H](CC(C)C)NC(=O)[C@H](CC(C)C)NC(=O)[C@H](CC(C)C)NC(=O)[C@H](CCCCN)NC(=O)[C@H](CC(C)C)NC(=O)[C@H](CC(C)C)NC(=O)[C@H](CCCCN)NC(=O)[C@@H](N)Cc1ccc(O)cc1)C(N)=O [YKLLKLLLPKLKGLLPKL]

- MIC [1]: > 76.3 µM
- MIC [2]: 38.1 µM (≈ 84.8 µg/mL)
- MIC [3]: 28.6 µM (≈ 63.6 µg/mL)
SMILES: CC(C)C[C@H](NC(=O)[C@H](CCCCN)NC(=O)[C@H](CCC(=O)O)NC(=O)[C@H](CC(C)C)NC(=O)[C@H](CC(C)C)NC(=O)[C@H](C)NC(=O)[C@H](CCCCN)NC(=O)[C@H](CC(C)C)NC(=O)[C@H](CCCCN)NC(=O)[C@H](CC(C)C)NC(=O)[C@H](CC(C)C)NC(=O)[C@H](CC(C)C)NC(=O)[C@H](Cc1c[nH]c2ccccc12)NC(=O)[C@H](CCCCN)NC(=O)[C@H](CC(C)C)NC(=O)[C@H](CC(C)C)NC(=O)[C@H](CCCCN)NC(=O)[C@@H](N)Cc1ccc(O)cc1)C(N)=O [YKLLKWLLLKLKALLEKL]

- MIC (Escherichia coli): > 129 µM
- MIC (Bacillus cereus): ≥ 129 µM
SMILES: CC[C@H](C)[C@H](NC(=O)[C@H](C)NC(=O)[C@H](CO)NC(=O)[C@H](Cc1ccccc1)NC(=O)[C@@H](NC(=O)[C@H](CO)NC(=O)[C@@H]1CCCN1C(=O)[C@@H](NC(=O)[C@@H](NC(=O)[C@H](CCCCN)NC(=O)[C@H](CO)NC(=O)[C@H](C)NC(=O)[C@@H](NC(=O)CNC(=O)[C@H](Cc1ccccc1)NC(=O)[C@@H](NC(=O)[C@H](C)NC(=O)CN)C(C)C)C(C)C)C(C)C)C(C)C)C(C)C)C(=O)N[C@@H](CCCCN)C(=O)N[C@@H](CCCCN)C(=O)O [GAVFGVASKVVPSVFSAIKK]

- MIC (Escherichia coli): 124 µM (≈ 256 µg/mL)
- MIC (Bacillus cereus): ≥ 124 µM
SMILES: CC[C@H](C)[C@H](NC(=O)[C@H](CC(=O)O)NC(=O)[C@H](CCCCN)NC(=O)[C@@H](NC(=O)[C@H](CC(C)C)NC(=O)[C@H](CO)NC(=O)[C@H](CCSC)NC(=O)[C@H](CC(C)C)NC(=O)CN)C(C)C)C(=O)N[C@@H](C)C(=O)N[C@@H](CCCCN)C(=O)N[C@@H](CC(C)C)C(=O)N[C@@H](C)C(=O)N[C@@H](C)C(=O)N[C@@H](CCCCN)C(=O)N[C@@H](CCC(N)=O)C(=O)NCC(=O)N[C@@H](C)C(=O)N[C@@H](CCCCN)C(=O)N[C@@H](CCC(N)=O)C(=O)O [GLMSLVKDIAKLAAKQGAKQ]

- MIC (Escherichia coli): > 64 µM
- MIC (Acinetobacter baumannii): ≥ 64 µM
- MIC [7]: ≥ 64 µM
- MIC (Staphylococcus aureus): > 64 µM
- MIC [5]: > 64 µM
- MIC (Klebsiella pneumoniae): > 64 µM
- MIC [3]: > 64 µM
- MIC (Pseudomonas aeruginosa): > 64 µM
- MIC [6]: > 64 µM
- MIC [8]: > 64 µM
SMILES: CC[C@H](C)[C@H](NC(=O)[C@H](CCCCN)NC(=O)CNC(=O)[C@H](C)NC(=O)[C@H](CCCCN)NC(=O)CNC(=O)[C@H](C)NC(=O)[C@@H](NC(=O)[C@H](CCCCN)NC(=O)[C@H](C)NC(=O)[C@@H](NC(=O)[C@H](CCCCN)NC(=O)CNC(=O)[C@H](C)NC(=O)[C@H](CCCCN)NC(=O)CNC(=O)[C@H](C)NC(=O)[C@@H](NC(=O)[C@@H](N)CCCCN)[C@@H](C)CC)[C@@H](C)CC)[C@@H](C)CC)C(=O)N[C@@H](C)C(N)=O [KIAGKAGKIAKIAGKAGKIA]

- MIC [1]: > 113 µM
- MIC [9]: > 113 µM
- MIC [5]: > 113 µM
- MIC [3]: > 113 µM
- MIC [10]: > 113 µM
SMILES: CC(C)[C@H](NC(=O)CN)C(=O)N[C@@H](CO)C(=O)NCC(=O)N[C@@H](Cc1cnc[nH]1)C(=O)NCC(=O)N[C@@H](CCC(N)=O)C(=O)N[C@@H](Cc1cnc[nH]1)C(=O)NCC(=O)N[C@H](C(=O)N[C@@H](Cc1cnc[nH]1)C(=O)NCC(=O)O)C(C)C [GVSGHGQHGVHG]

- MIC [7]: 30 µM (≈ 64.3 µg/mL)
- MIC [11]: 2.9 µM (≈ 6.22 µg/mL)
- MIC [6]: > 30 µM
- MIC [8]: 2.7 µM (≈ 5.79 µg/mL)
SMILES: CC(C)C[C@H](NC(=O)[C@H](CC(C)C)NC(=O)[C@H](CCCN=C(N)N)NC(=O)[C@H](CCCN=C(N)N)NC(=O)[C@H](C)NC(=O)[C@H](Cc1c[nH]c2ccccc12)NC(=O)CNC(=O)[C@H](CCCN=C(N)N)NC(=O)[C@@H](N)CCCN=C(N)N)C(=O)N[C@@H](CCCN=C(N)N)C(=O)N[C@@H](C)C(=O)N[C@@H](Cc1ccccc1)C(=O)N[C@@H](C)C(=O)N[C@@H](Cc1ccccc1)C(=O)NCC(=O)N[C@@H](CCCN=C(N)N)C(=O)N[C@@H](CCCN=C(N)N)C(N)=O [RRGWARRLLRAFAFGRR]
